In patent US8063096B2, “Spirocyclic 3-phenyl-3substituted-4-ketolactams and-lactones” (Bayer Cropscience AG, priority 2001, dated 2011):
Like-named read-outs stand apart in the source and are kept apart here.

Tests used:
[1] = log P determination; assay type: physicochemical; details: pH 2.3, pH 2.3
[2] = tested on: Myzus persicae; assay: Test for persistency: Myzus persicae (root-systemic action); assay type: in vivo; details: 4 ppm in soil, broad beans
Experimental: [table] To produce a suitable preparation of active compound, 1 part by weight of active compound is mixed with the stated amounts of solvent and emulsifier, and the concentrate is diluted with water to the desired concentration. The preparation of active compound is mixed intimately with the soil. The stated concentration refers to the amount of active compound per volume unit of soil (mg/l). The treated soil is filled into pots, and into these pots is planted pre-germinated broad beans. In this way, the active compound can be taken up from the soil into the roots of the plants and be transported into the leaves. After the stated number of days, peach aphids (Myzus persicae) are, in infection chambers, placed on the leaves. After the desired period of time, the kill in % is determined. 100% means that all aphids have been killed; 0% means that none of the aphids have been killed.

[3] = tested on: Myzus persicae; assay: Myzus test (leaf dip, cabbage); assay type: in vivo; details: 500 ppm active compound, cabbage leaves dipped
Experimental: (§1) [table] To produce a suitable preparation of active compound, 1 part by weight of active compound is mixed with the stated amounts of solvent and emulsifier, and the concentrate is diluted with emulsifier-containing water to the desired concentration. Cabbage leaves (Brassica oleracea) which are heavily infested by peach aphids (Myzus persicae) are treated by being dipped into the preparation of active compound of the desired concentration. After the desired period of time, the kill in % is determined. 100% means that all aphids have been killed; 0% means that none of the aphids have been killed.

[4] = tested on: Meloidogyne incognita; assay: Meloidogyne test (gall formation on lettuce roots); assay type: in vivo; details: 20 ppm active compound, nematicidal action by gall formation
Experimental: [table] To produce a suitable preparation of active compound, 1 part by weight of active compound is mixed with the stated amounts of solvent and emulsifier, and the concentrate is diluted with water to the desired concentration. Vessels are filled with sand, solution of active compound, Meloidogyne incognita egg/larvae suspension and lettuce seeds. The lettuce seeds germinate and the plants develop. On the roots, galls develop. After the desired period of time, the nematicidal action is determined in % by the formation of galls. 100% means that no galls have been found; 0% means that the number of galls on the treated plants corresponds to that of the untreated control.

[5] = tested on: Phaedon cochleariae; assay: Phaedon larvae test; assay type: in vivo; details: 500 ppm active compound, cabbage leaves dipped
Experimental: [table] To produce a suitable preparation of active compound, 1 part by weight of active compound is mixed with the stated amounts of solvent and emulsifier, and the concentrate is diluted with emulsifier-containing water to the desired concentration. Cabbage leaves (Brassica oleracea) are treated by being dipped into the preparation of active compound of the desired concentration and are populated with larvae of the mustard beetle (Phaedon cochleariae) while leaves are still moist. After the desired period of time, the kill in % is determined. 100% means that all beetle larvae have been killed; 0% means that none of the beetle larvae have been killed.

[6] = tested on: Echinochloa; assay: Pre-emergence test, Echinochloa; assay type: in vivo; details: pre-emergence/greenhouse; 250 g of ai/ha; after three weeks
Experimental: (§2) [table] To produce a suitable preparation of active compound, 1 part by weight of active compound is mixed with the stated amount of solvent, the stated amount of emulsifier is added and the concentrate is diluted with water to the desired concentration. Seeds of the test plants are sown in normal soil. After about 24 hours, the soil is sprayed with the preparation of active compound such that the particular amounts of active compound desired are applied per unit area. The concentration of the spray liquor is chosen such that the particular amounts of active compound desired are applied in 1000 l of water/ha. After three weeks, the degree of damage to the plants is rated in % damage in comparison to the development of the untreated control. The figures denote: • 0%=no effect (like untreated control) • 100%=total destruction

[7] = tested on: Alopecurus; assay: Post-emergence test, Alopecurus; assay type: in vivo; details: post-emergence/greenhouse; 250 g of ai/ha; after three weeks
Experimental: as §2, with “Test plants” for “Seeds”, “a height of 5-15 cm” for “the test plants”, “are” for “are sown in normal soil. After about 24 hours, the soil is”, “(=like” for “(like”

[8] = tested on: Avena fatua; assay: Post-emergence test, Avena fatua; assay type: in vivo; details: post-emergence/greenhouse; 250 g of ai/ha; after three weeks
Experimental: as §2, with “Test plants” for “Seeds”, “a height of 5-15 cm” for “the test plants”, “are” for “are sown in normal soil. After about 24 hours, the soil is”, “(=like” for “(like”

[9] = tested on: Alopecurus; assay: Pre-emergence test, Alopecurus; assay type: in vivo; details: pre-emergence/greenhouse; 250 g of ai/ha; after three weeks
Experimental: as §2

[10] = tested on: Sinapis; assay: Post-emergence test, Sinapis; assay type: in vivo; details: post-emergence/greenhouse; 250 g of ai/ha; after three weeks
Experimental: as §2, with “Test plants” for “Seeds”, “a height of 5-15 cm” for “the test plants”, “are” for “are sown in normal soil. After about 24 hours, the soil is”, “(=like” for “(like”

[11] = tested on: Echinochloa; assay: Post-emergence test, Echinochloa; assay type: in vivo; details: post-emergence/greenhouse; 250 g of ai/ha; after three weeks
Experimental: as §2, with “Test plants” for “Seeds”, “a height of 5-15 cm” for “the test plants”, “are” for “are sown in normal soil. After about 24 hours, the soil is”, “(=like” for “(like”

[12] = tested on: Sinapis; assay: Pre-emergence test, Sinapis; assay type: in vivo; details: pre-emergence/greenhouse; 250 g of ai/ha; after three weeks
Experimental: as §2

[13] = tested on: Setaria; assay: Post-emergence test, Setaria; assay type: in vivo; details: post-emergence/greenhouse; 250 g of ai/ha; after three weeks
Experimental: as §2, with “Test plants” for “Seeds”, “a height of 5-15 cm” for “the test plants”, “are” for “are sown in normal soil. After about 24 hours, the soil is”, “(=like” for “(like”

[14] = tested on: Setaria; assay: Pre-emergence test, Setaria; assay type: in vivo; details: pre-emergence/greenhouse; 250 g of ai/ha; after three weeks
Experimental: as §2

[15] = tested on: Avena fatua; assay: Pre-emergence test, Avena fatua; assay type: in vivo; details: pre-emergence/greenhouse; 250 g of ai/ha; after three weeks
Experimental: as §2

[16] = tested on: Tetranychus urticae; assay: Tetranychus test (OP-resistant/dip treatment); assay type: in vivo; details: 100 ppm active compound, bean plants dipped, OP-resistant
Experimental: [table] To produce a suitable preparation of active compound, 1 part by weight of active compound is mixed with the stated amounts of solvent and emulsifier, and the concentrate is diluted with emulsifier-containing water to the desired concentration. Bean plants (Phaseolus vulgaris) which are heavily infested by all stages of the greenhouse […] spider mite (Tetranychus urticae) are dipped into a preparation of active compound of the desired concentration. After the desired period of time, the activity in % is determined. 100% means that all spider mites have been killed; 0% means that none of the spider mites have been killed.

[17] = tested on: Sugar beet; assay: Pre-emergence test, Sugar beet; assay type: in vivo; details: pre-emergence/greenhouse; 250 g of ai/ha; after three weeks; crop
Experimental: as §2

[18] = tested on: Amaranthus; assay: Pre-emergence test, Amaranthus; assay type: in vivo; details: pre-emergence/greenhouse; 250 g of ai/ha; after three weeks
Experimental: as §2

[19] = tested on: Amaranthus; assay: Post-emergence test, Amaranthus; assay type: in vivo; details: post-emergence/greenhouse; 250 g of ai/ha; after three weeks
Experimental: as §2, with “Test plants” for “Seeds”, “a height of 5-15 cm” for “the test plants”, “are” for “are sown in normal soil. After about 24 hours, the soil is”, “(=like” for “(like”

[20] = tested on: Aphis gossypii; assay: Aphis gossypii test (leaf dip, cotton); assay type: in vivo; details: 500 ppm active compound, cotton leaves dipped
Experimental: as §1, with “Cotton” for “Cabbage”, “(Gossypium hirsutum)” for “(Brassica oleracea)”, “the cotton” for “peach”, “(Aphis gossypii)” for “(Myzus persicae)”

SMILES	Kill rate in % after 7d [5] [%]	% damage, Echinochloa [6] [%]	% damage, Alopecurus [7] [%]	% damage, Avena fatua [8] [%]	% damage, Alopecurus [9] [%]	% damage, Sinapis [10] [%]	% damage, Echinochloa [11] [%]	% damage, Setaria [13] [%]	% damage, Setaria [14] [%]	% damage, Avena fatua [15] [%]	Kill rate in % after 7d [16] [%]	other results
COC1CCC2(CC1)OC(=O)C(Cl)(c1cc(C)c(C)cc1C)C2=O (stereo not shown) [Ex. I-2-a-1]												logP ([1]; read-out: log P (pH 2.3)): 4.07; logP ([1]; read-out: logP (2.3)): 4.07; Kill rate in % after 7d ([2]; infection after 7 d): 100%; Kill rate in % after 7d ([2]; infection after 21 d): 95%; Kill rate in % after 7d ([2]; infection after 35 d): 0%
COC1CCC2(CC1)NC(=O)C(Cl)(c1c(Cl)cc(Cl)c(C)c1Cl)C2=O (stereo not shown) [Ex. I-1-a-27]												Kill rate in % after 6d [3]: 90%; Kill rate in % after 14d [4]: 100%
COC1CCC2(CC1)NC(=O)C(Cl)(c1c(C)cc(Br)cc1C)C2=O (stereo not shown) [Ex. I-1-a-9]	90	100	95	90	100	80	100	100	100	80		% damage, Sinapis [12]: 90%
Cc1cc(Br)cc(C)c1C1(Cl)C(=O)NC2(CCCOC2)C1=O (stereo not shown) [Ex. I-1-b-1]											95	
COC1CCC2(CC1)NC(=O)C(Cl)(c1ccc(C)cc1C(F)(F)F)C2=O (stereo not shown) [Ex. I-1-a-16]											100	
Cc1cc(Cl)cc(Br)c1C1(Cl)C(=O)NC2(CCCOC2)C1=O (stereo not shown) [Ex. I-1-b-9]	100											
CCc1cc(Cl)cc(Cl)c1C1(Cl)C(=O)NC2(CCC(OC)CC2)C1=O (stereo not shown) [Ex. I-1-a-46]		100	100	100	95	70	100	100	100	100		% damage, Sugar beet [17]: 0%; Kill rate in % after 6d [3]: 98%
CCc1cc(Cl)c(C2(Cl)C(=O)NC3(CCCOC3)C2=O)c(Br)c1 (stereo not shown) [Ex. I-1-b-5]											90	
COC1CCC2(CC1)NC(=O)C(Cl)(c1c(Cl)cc(C)cc1Cl)C2=O (stereo not shown) [Ex. I-1-a-6]	100	95	95	95	100	80	100	100	100	95		% damage, Amaranthus [18]: 100%; % damage, Sinapis [12]: 90%; % damage, Amaranthus [19]: 90%
COC1CCC2(CC1)NC(=O)C(Cl)(c1cc(C)ccc1C)C2=O (stereo not shown) [Ex. I-1-a-2]											98	Kill rate in % after 14d [4]: 90%; Kill rate in % after 6d [20]: 95%
